Test results taken from US20250271426A1, “REDUCTION OF BITTER TASTE OF ACTIVE PHARMACEUTICAL INGREDIENTS AND RELATED ASSAYS AND SCREENING METHODS” (Firmenich Incorporated, priority 2022, published 2025).

Legend:
Test in all cases: FLIPR calcium assay, cells with promiscuous G protein transfected with bitter receptor cDNA
Assay type in all cases: cell-based
Conditions in all cases: responsive if cellular response of >10% over baseline, Fluo4-AM
[1] = molecular target: T1, T2R receptor SEQ ID NO: 6 (S6) (Homo sapiens, UniProt P59540)
T1 construct: expressed in transfected cells; host or cells: cells expressing a promiscuous G protein (e.g., G16g44)
T1 sequence (P59540 1-309): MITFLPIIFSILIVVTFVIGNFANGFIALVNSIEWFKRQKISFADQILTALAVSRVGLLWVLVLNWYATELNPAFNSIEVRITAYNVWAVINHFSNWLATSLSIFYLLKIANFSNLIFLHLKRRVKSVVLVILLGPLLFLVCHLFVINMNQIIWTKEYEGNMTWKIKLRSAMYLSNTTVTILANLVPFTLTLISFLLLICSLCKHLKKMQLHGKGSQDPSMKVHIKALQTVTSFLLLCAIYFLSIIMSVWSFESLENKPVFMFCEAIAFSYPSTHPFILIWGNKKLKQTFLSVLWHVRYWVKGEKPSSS
Procedure, shortened: (§1)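 Transfect G16g44-expressing cells, one T2R per well; incubate 28 h. Load Fluo4-AM 60 min, wash. Stimulate with bitter agonist, record Ca fluorescence on FLIPR. Hit = >10% over baseline.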

[2] = molecular target: T2, T2R receptor SEQ ID NO: 5 (S5) (Homo sapiens, UniProt P59534)
T2 construct: expressed in transfected cells; host or cells: cells expressing a promiscuous G protein (e.g., G16g44)
T2 sequence (P59534 18-338): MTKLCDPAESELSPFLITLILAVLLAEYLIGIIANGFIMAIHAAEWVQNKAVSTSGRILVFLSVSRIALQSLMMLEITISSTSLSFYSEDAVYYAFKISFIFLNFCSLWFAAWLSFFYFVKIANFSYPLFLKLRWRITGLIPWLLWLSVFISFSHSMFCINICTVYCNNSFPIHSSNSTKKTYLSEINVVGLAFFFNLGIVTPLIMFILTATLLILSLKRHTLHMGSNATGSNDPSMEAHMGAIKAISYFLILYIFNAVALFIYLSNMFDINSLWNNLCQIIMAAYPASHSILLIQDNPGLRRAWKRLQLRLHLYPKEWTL
Procedure, shortened: as §1

[3] = molecular target: T3, T2R receptor SEQ ID NO: 4 (S4) (Homo sapiens, UniProt Q9NYV8)
T3 construct: expressed in transfected cells; host or cells: cells expressing a promiscuous G protein (e.g., G16g44)
T3 sequence (Q9NYV8 1-317): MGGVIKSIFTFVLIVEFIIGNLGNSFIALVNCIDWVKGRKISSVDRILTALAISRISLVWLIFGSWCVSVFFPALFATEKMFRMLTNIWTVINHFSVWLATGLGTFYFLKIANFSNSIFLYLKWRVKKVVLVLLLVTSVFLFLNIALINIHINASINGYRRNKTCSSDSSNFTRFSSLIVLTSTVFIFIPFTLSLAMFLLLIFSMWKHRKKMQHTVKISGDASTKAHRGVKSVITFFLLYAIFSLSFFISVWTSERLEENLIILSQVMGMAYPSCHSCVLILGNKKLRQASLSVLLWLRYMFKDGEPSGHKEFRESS
Procedure, shortened: as §1

[4] = molecular target: T4, T2R receptor SEQ ID NO: 2 (S2) (Homo sapiens, UniProt Q9NYW2)
T4 construct: expressed in transfected cells; host or cells: cells expressing a promiscuous G protein (e.g., G16g44)
T4 sequence (Q9NYW2 1-309): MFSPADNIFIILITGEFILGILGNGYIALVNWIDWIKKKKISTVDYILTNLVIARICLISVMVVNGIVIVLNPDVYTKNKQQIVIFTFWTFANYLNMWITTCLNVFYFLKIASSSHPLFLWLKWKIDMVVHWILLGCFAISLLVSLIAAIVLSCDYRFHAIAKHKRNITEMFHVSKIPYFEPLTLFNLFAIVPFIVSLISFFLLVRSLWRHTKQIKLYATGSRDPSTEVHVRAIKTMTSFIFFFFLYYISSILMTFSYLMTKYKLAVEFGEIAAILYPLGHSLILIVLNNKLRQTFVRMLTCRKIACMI
Procedure, shortened: as §1

[5] = molecular target: T5, T2R receptor SEQ ID NO: 3 (S3) (Homo sapiens, UniProt Q9NYW0, T156M)
T5 construct: expressed in transfected cells; host or cells: cells expressing a promiscuous G protein (e.g., G16g44)
T5 sequence (Q9NYW0 1-307 T156M): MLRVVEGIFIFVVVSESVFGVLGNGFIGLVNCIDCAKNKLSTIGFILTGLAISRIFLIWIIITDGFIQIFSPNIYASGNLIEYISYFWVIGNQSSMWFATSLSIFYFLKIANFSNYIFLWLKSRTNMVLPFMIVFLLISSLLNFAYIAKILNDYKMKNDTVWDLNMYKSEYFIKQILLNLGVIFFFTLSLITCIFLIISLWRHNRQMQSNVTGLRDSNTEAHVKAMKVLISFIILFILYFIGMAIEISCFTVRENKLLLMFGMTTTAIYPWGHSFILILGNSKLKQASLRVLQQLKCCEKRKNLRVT
Procedure, shortened: as §1

[6] = molecular target: T6, T2R receptor SEQ ID NO: 1 (S1) (Homo sapiens, UniProt Q9NYW7)
T6 construct: expressed in transfected cells; host or cells: cells expressing a promiscuous G protein (e.g., G16g44)
T6 sequence (Q9NYW7 1-299): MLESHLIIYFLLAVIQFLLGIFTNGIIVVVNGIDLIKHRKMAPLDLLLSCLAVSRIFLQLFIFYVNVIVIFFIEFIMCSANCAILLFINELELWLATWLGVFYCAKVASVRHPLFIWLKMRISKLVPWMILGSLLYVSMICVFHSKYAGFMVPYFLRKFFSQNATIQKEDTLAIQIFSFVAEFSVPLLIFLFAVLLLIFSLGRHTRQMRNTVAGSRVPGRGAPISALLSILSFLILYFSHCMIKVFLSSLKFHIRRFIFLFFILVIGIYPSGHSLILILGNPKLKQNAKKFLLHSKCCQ
Procedure, shortened: as §1

SMILES	S6 positive response of T2R receptor to API [1]	S5 positive response of T2R receptor to API [2]	S4 positive response of T2R receptor to API [3]	S2 positive response of T2R receptor to API [4]	S3 positive response of T2R receptor to API [5]	S1 positive response of T2R receptor to API [6]
O=C(O)COCCN1CCN(C(c2ccccc2)c2ccc(Cl)cc2)CC1 (stereo not drawn) [Cetirizine]	+ (a “+” to indicate whether a particular T2R receptor showed a positive response to a particular API)	+ (a “+” to indicate whether a particular T2R receptor showed a positive response to a particular API)	+ (a “+” to indicate whether a particular T2R receptor showed a positive response to a particular API)	+ (a “+” to indicate whether a particular T2R receptor showed a positive response to a particular API)	+ (a “+” to indicate whether a particular T2R receptor showed a positive response to a particular API)	+ (a “+” to indicate whether a particular T2R receptor showed a positive response to a particular API)
CN(C)CCOC(C)(c1ccccc1)c1ccccn1 (stereo not drawn) [Doxylamine]	+ (a “+” to indicate whether a particular T2R receptor showed a positive response to a particular API)	+ (a “+” to indicate whether a particular T2R receptor showed a positive response to a particular API)	+ (a “+” to indicate whether a particular T2R receptor showed a positive response to a particular API)	+ (a “+” to indicate whether a particular T2R receptor showed a positive response to a particular API)	+ (a “+” to indicate whether a particular T2R receptor showed a positive response to a particular API)	+ (a “+” to indicate whether a particular T2R receptor showed a positive response to a particular API)
CCN(CC)CCCC(C)Nc1ccnc2cc(Cl)ccc12 (stereo not drawn) [Chloroquine]	+ (a “+” to indicate whether a particular T2R receptor showed a positive response to a particular API)	+ (a “+” to indicate whether a particular T2R receptor showed a positive response to a particular API)	+ (a “+” to indicate whether a particular T2R receptor showed a positive response to a particular API)	+ (a “+” to indicate whether a particular T2R receptor showed a positive response to a particular API)	+ (a “+” to indicate whether a particular T2R receptor showed a positive response to a particular API)	+ (a “+” to indicate whether a particular T2R receptor showed a positive response to a particular API)
